Reference: article PMC11650735, “Challenging Reported Frizzled-Targeting Compounds in Selective Assays Reveals Lack of Functional Inhibition and Claimed Profiles” (ACS Pharmacology & Translational Science, 2024)
“Also recorded” adds a separate entry of the source. Like-named read-outs stand apart in the source and are kept apart here.

How the values were obtained:
[1] = tested on: CHIR99021-stimulated Wnt pathway activation; assay: TopFlash assay in reporter wild-type HEK293T line, CHIR99021-stimulated; type: cell-based, human; conditions: for inhibition of CHIR99021-stimulated response compared with Wnt3a-stimulated, in words: wild-type reporter HEK293T, TopFlash
[2] = tested on: Wnt3a-stimulated Wnt pathway activation; assay: TopFlash assay in reporter wild-type HEK293T line, Wnt3a-stimulated; type: cell-based, human; conditions: for IC50: Homo sapiens, HEK-293T, Wnt3a
[3] = tested on: individually reexpressed FZDs (1,2,4,5,7,8, and 10); assay: TopFlash in ΔFZD1–10 HEK293T, panel of individually reexpressed FZDs, Wnt3a-stimulated (collective statements)
[4] = tested on: CHIR99021-induced Wnt pathway activation (FZD-independent); assay: TopFlash in ΔFZD1–10 HEK293T without FZD (pcDNA), CHIR99021-stimulated
[5] = tested on: HEK293T cells; assay: Renilla luciferase (pRL-CMV) toxicity/general transcription readout in wild-type reporter HEK293T; conditions: for IC50: Homo sapiens, HEK-293T, read-out: IC50 (Renilla)
[6] = target: T1, FZD7 (Homo sapiens, UniProt O75084); assay: NanoLuc-substituted TopFlash reporter in ΔFZD1–10 HEK293T cotransfected with FZD7, Wnt3a
[7] = target: firefly luciferase (Photinus pyralis, UniProt P08659); assay: Compound added to prestimulated TopFlash cells immediately prior to lysis and measurement; conditions: compound added directly before cell lysis
[8] = tested on: Wnt3a/FZD7-mediated cytoplasmic β-catenin accumulation; assay: Western blot of FZD7-dependent cytoplasmic β-catenin accumulation in ΔFZD1–10 HEK293T; type: cell-based, human; conditions: 10 μM, FZD7-transfected ΔFZD1–10 HEK293T
Method: In 24-well plates, a ΔFZD1–10 HEK293T cell line was reinfected with a baculovirus expressing FZD7 or a control baculovirus at a density of 100,000 cells/well. The new medium containing the 10 μM F7H-28 derivative and the indicated Wnt activators (500 ng/mL Wnt3a or 1 μM CHIR99021) was added and incubated until the next day. The medium was then removed, and 500 μL of 1× PBS was used twice for washing. After adding 30 μL of ice-cold 1× TBS supplemented with 4 mM EDTA and 1× protease inhibitor cocktail, the cells were lysed by scraping and passed through an insulin 30G needle 10 times. The samples were centrifuged at 18,000g and 4 °C for 10 min to remove debris. Western blot was performed on 15 μL of each supernatant and developed using antibodies against α-tubulin and β-catenin.

[9] = tested on: FZD7; set-up: method as in PMID 37669317; conditions: cited from earlier work
[10] = target: T1, FZD7; assay: TopFlash in ΔFZD1–10 HEK293T with reexpressed FZD7, Wnt3a-stimulated; conditions: FZD7 reexpression, firefly TopFlash
[11] = target: T1, FZD7; assay: cell-based
[12] = target: T2, FZD4 (Mus musculus, UniProt Q61088); assay: TopFlash in ΔFZD1–10 HEK293T with reexpressed FZD4, Wnt3a-stimulated; conditions: ΔFZD1–10 HEK293T + FZD4, Wnt3a, up to 50 μM
T2 sequence (Q61088 37-537): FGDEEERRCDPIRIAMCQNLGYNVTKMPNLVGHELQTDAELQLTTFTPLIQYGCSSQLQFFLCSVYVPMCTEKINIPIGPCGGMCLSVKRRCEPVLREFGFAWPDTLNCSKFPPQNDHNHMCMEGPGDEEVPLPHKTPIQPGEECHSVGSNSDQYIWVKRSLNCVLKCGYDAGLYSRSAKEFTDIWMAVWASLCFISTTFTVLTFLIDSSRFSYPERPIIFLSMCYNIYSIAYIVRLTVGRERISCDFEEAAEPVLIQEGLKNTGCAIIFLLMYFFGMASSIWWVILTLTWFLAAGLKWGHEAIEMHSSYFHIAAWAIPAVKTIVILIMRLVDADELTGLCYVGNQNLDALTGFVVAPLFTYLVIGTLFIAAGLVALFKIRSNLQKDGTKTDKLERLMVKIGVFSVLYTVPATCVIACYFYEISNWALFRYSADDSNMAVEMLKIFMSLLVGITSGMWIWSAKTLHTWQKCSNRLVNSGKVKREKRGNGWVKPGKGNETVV

[13] = tested on: Wnt signaling in TopFlash-transfected 3T3 cells; set-up: method as in PMID 26504084; conditions: read-out: potency; cited from earlier work
[14] = tested on: ΔFZD1–10 HEK293T cells; conditions: for toxicity / general transcriptional inhibition by Renilla signal, in words: Renilla luciferase
[15] = tested on: mouse FZD8; set-up: method as in PMID 32049522; conditions: HEK293T FZD1,2,7 knockout + mouse FZD8; cited from earlier work
[16] = tested on: HEK293T cells
[17] = tested on: FZD7; set-up: method as in PMID 29207657; conditions: claimed FZD7 inhibition; cited from earlier work
[18] = read-out: IC50 / potency, ΔFZD1–10 HEK293T without FZD, CHIR99021

firefly luciferase, sequence (P08659 whole entry): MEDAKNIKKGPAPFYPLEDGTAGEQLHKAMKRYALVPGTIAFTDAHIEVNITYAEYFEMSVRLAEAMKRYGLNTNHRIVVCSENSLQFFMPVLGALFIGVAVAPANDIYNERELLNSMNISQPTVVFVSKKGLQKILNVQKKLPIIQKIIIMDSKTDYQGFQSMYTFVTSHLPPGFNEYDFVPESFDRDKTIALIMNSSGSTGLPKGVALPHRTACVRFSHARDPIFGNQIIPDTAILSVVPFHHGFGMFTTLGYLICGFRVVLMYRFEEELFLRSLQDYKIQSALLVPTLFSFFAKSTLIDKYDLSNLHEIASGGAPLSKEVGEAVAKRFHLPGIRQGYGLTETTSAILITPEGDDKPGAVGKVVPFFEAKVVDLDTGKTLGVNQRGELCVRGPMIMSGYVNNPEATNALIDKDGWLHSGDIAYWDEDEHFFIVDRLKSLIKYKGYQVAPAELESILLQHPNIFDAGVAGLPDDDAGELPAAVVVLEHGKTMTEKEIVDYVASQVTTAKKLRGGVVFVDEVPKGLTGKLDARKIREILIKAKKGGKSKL

SMILES: O=C(Nc1ccc([N+](=O)[O-])cc1Cl)c1cc(Cl)ccc1O [niclosamide]
- IC50 ([1]; Homo sapiens, HEK-293T, wild-type HEK293T reporter line): 0.1 µM
- IC50 ([2]; wild-type HEK293T reporter line): 0.1 µM
- IC50 ([3]; all individually reexpressed FZDs, Wnt3a): 0.1 µM
- IC50 ([4]; CHIR99021 in cells deprived of any FZD protein): 0.1 µM

SMILES: O=C(CSc1ccc(NC(=O)c2ccc(F)cc2)cc1)Nc1nc(-c2ccccc2)cs1 [F7H-28]
- IC50 [5]: > 2 µM
- effect on NanoLuc Wnt reporter, in words [6]: does not report significant changes
- direct effect on firefly luciferase, in words [7]: inhibits the firefly luciferase enzymatic activity
- effect on cytoplasmic β-catenin signal (Western blot), in words [8]: does not reduce this signal
- IC50 [9]: 0.04 µM
- potency compared with CHIR99021-stimulated cells, in words [10]: same potency
- IC50 [11]: > 50 µM

SMILES: O=C(Nc1cc(O)cc(-c2cccs2)c1)Nc1ccc2ccccc2c1 [FzM1]
- activity against Wnt signaling, in words ([2]; wild-type HEK293T, up to 50 μM): no detectable activity; also recorded: no statistically discernible effect
- activity against Wnt signaling, in words ([3]; any of the FZDs in ΔFZD1–10 HEK293T, Wnt3a, up to 50 μM): no detectable activity; also recorded: no statistically discernible effect
- effect on FZD4-dependent Wnt3a signaling, in words [12]: no statistically discernible effect

SMILES: COc1ccc(C(=O)Nc2ccccc2C(=O)NC(C(=O)NNC(=O)COc2ccccc2)C(C)C)cc1 (centres unmarked) [3235-0367]
- IC50 [5]: > 50 µM
- inhibition of CHIR99021-stimulated response compared with Wnt3a-stimulated, in words [1]: overlapping inhibition curve
- IC50 ([2]; wild-type reporter HEK293T, TopFlash): ~8 µM
- selectivity among FZDs, in words ([3]; individual FZDs including FZD8): no significant selectivity
- IC50 [4, 18]: ~20 µM
- IC50 [13]: 7.1 µM
- IC50 ([14]; read-out: IC50 (Renilla), Renilla luciferase signal): > 50 µM

SMILES: NC(=O)N1c2ccccc2C=Cc2ccccc21 [carbamazepine]
- inhibition of Wnt3a-induced signal, in words [15]: partially inhibited
- inhibition of CHIR99021-stimulated response compared with Wnt3a-stimulated, in words [1]: slightly (but significantly) better
- toxicity by effect on Renilla luciferase, in words [16]: some toxicity
- IC50 [4, 18]: ~50 µM
- toxicity / general transcriptional inhibition by Renilla signal, in words [14]: some toxicity

SMILES: CSCC[C@H](NC(=O)[C@@H](NC(=O)[C@H](Cc1c[nH]cn1)NC(=O)[C@H](CS)NC(=O)[C@H](Cc1c[nH]c2ccccc12)NC(=O)[C@H](Cc1ccccc1)NC(=O)[C@H](CCC(=O)O)NC(=O)[C@H](CC(C)C)NC(=O)[C@H](CC(=O)O)NC(=O)[C@H](CC(=O)O)NC(=O)[C@H](CO)NC(=O)[C@@H]1CCCN1C(=O)[C@@H](N)CC(C)C)C(C)C)C(=O)N[C@@H](Cc1ccc(O)cc1)C(=O)O [Fz7–21, LPSDDLEFWCHVMY]
- toxicity / general transcriptional inhibition by Renilla signal, in words [14]: no unspecific toxicity

SMILES: O=C(/C=C/c1ccc2c(c1)OCO2)Nc1ccc(-n2cnc3ccccc32)cc1 [SRI35959]
- toxicity by effect on Renilla luciferase, in words ([5]; wild-type reporter HEK293T, Renilla luciferase): some toxicity
- inhibition of CHIR99021-stimulated response compared with Wnt3a-stimulated, in words [1]: slightly (but significantly) better
- IC50 [17]: ~3 µM
- IC50 [4, 18]: 10 µM
- toxicity / general transcriptional inhibition by Renilla signal, in words [14]: some toxicity
